Data as given in article PMC2730992 (Molecular and biochemical parasitology, 2009).

Experiments:
Tb AdoMetDC/Tc Prozyme = molecular target: T1, Tb AdoMetDC/Tc Prozyme (Trypanosoma brucei, UniProt P50244); type: biochemical; details: 5 mM putrescine; allosteric activator; pH 8.0, 37 °C
T1 sequence (P50244 1-85): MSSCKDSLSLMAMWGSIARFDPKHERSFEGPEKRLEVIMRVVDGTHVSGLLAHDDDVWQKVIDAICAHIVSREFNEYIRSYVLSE
T1 sequence (P50244 86-370): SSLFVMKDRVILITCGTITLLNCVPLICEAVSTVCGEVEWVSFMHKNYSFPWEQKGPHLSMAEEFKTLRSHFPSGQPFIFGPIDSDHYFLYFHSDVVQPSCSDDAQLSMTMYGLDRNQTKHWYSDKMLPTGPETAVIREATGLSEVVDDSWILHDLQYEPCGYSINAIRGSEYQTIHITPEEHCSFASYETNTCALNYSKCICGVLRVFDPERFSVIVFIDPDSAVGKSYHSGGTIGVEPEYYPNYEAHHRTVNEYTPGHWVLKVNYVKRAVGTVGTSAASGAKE
T1 sequence (Q4DQQ6 1-326 partner): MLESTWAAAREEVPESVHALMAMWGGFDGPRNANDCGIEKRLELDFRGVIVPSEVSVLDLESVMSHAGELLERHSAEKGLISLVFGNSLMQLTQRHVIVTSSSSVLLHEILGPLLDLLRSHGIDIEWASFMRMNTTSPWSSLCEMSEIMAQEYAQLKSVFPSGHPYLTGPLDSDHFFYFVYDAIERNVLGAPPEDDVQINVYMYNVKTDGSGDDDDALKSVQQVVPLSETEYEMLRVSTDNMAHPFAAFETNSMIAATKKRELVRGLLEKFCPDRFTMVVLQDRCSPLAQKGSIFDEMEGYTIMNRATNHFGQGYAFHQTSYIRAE

Tc AdoMetDC/Tb Prozyme = molecular target: T2, Tc AdoMetDC/Tb Prozyme (Trypanosoma cruzi, UniProt O76240); type: biochemical; details: 5 mM putrescine; allosteric activator; pH 8.0, 37 °C
T2 sequence (O76240 1-85): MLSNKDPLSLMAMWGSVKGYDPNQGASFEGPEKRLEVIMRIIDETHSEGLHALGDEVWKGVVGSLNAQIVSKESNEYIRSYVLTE
T2 sequence (O76240 86-370): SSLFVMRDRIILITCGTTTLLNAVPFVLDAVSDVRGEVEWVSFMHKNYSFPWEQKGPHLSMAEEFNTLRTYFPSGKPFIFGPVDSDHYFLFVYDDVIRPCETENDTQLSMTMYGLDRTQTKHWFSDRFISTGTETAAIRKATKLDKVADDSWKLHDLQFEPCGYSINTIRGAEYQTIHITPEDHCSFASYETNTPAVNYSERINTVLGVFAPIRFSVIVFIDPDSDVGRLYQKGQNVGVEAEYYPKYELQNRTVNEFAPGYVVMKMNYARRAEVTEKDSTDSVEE
T2 sequence (A5HNV6 1-325 partner): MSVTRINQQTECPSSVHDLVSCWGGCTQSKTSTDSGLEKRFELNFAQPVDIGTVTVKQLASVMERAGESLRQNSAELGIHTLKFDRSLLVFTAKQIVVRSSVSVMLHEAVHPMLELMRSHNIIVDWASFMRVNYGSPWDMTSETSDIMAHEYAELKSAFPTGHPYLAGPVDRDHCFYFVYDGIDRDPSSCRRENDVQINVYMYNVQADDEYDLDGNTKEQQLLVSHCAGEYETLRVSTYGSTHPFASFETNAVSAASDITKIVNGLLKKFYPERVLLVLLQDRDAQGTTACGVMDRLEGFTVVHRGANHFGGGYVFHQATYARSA

purified protein = substrate: C[S+](CC[C@H](N)C(=O)O)C[C@H]1O[C@@H](n2cnc3c(N)ncnc32)[C@H](O)[C@@H]1O; assay: purified protein; details: pH 8.0; 37.0 °C

Molecule	activation of AdoMet decarboxylation, 14CO2 trapping (Tb AdoMetDC/Tc Prozyme)	activation of AdoMet decarboxylation, 14CO2 trapping (Tc AdoMetDC/Tb Prozyme)	Km (purified protein) [µM]
NCCCCN [putrescine]	when putrescine was included, both cross-species heterodimers were further activated	when putrescine was included, both cross-species heterodimers were further activated	
Tc AdoMetDC/Tb Prozyme (Trypanosoma cruzi) (protein) chain 1: MLSNKDPLSLMAMWGSVKGYDPNQGASFEGPEKRLEVIMRIIDETHSEGLHALGDEVWKGVVGSLNAQIVSKESNEYIRSYVLTE chain 2: SSLFVMRDRIILITCGTTTLLNAVPFVLDAVSDVRGEVEWVSFMHKNYSFPWEQKGPHLSMAEEFNTLRTYFPSGKPFIFGPVDSDHYFLFVYDDVIRPCETENDTQLSMTMYGLDRTQTKHWFSDRFISTGTETAAIRKATKLDKVADDSWKLHDLQFEPCGYSINTIRGAEYQTIHITPEDHCSFASYETNTPAVNYSERINTVLGVFAPIRFSVIVFIDPDSDVGRLYQKGQNVGVEAEYYPKYELQNRTVNEFAPGYVVMKMNYARRAEVTEKDSTDSVEE			440 ± 14
